Data from patent US9220669B2, “Resveratrol ferulate compounds, compositions containing the compounds, and methods of using the same” (ELC Management LLC, priority 2007, dated 2015).

Tested on: endogenous reactive oxygen species (ROS), primarily hydrogen peroxide (H2O2), in normal human epidermal keratinocyte (NHEK) cell cultures
Experiment: Endogenous reactive oxygen species (ROS) level in NHEK cell cultures, dichlorodihydrofluorescein diacetate fluorescence
Assay type: cell-based
Settings: overnight incubation, fluorescence at 5.5 hour time point, NHEK cells
Description: Specifically, NHEK cells were cultured and plated, followed by treatment with Resveratrol Ferulates at concentrations of about 10 μM, 25 μM, and 50 μM. As comparative examples, some NHEK cells were separated treated with resveratrol at a concentration of about 25 μM. Further as control examples, some NHEK cells were maintained without treatment with either Resveratrol Ferulates or resveratrol. Four samples of NHEK cells were provided for each treatment. After overnight incubation of the cell cultures, dichlorodihydrofluorescein diacetate was added thereinto. Dichlorodihydrofluorescein diacetate is a useful fluorogenic reagent for detecting reactive oxygen species in cells. Upon oxidation by the reactive oxygen species, dichlorodihydrofluorescein diacetate becomes the highly green fluorescent dichlorofluorescein, which can be readily detected by fluorescene spectroscopy. For example, a Gemini EM microplate spectrofluorometer commercially available from Molecular Devices at Sunnyvale, Calif. was employed to measure the fluorescence (Ex450, Em525) of the cell cultures at the 5.5 hour time point, which was used as an indication of the amount of reactive oxygen species (primarily H2O2) in the cells.

Which “average reduction in ROS level in comparison with the control samples” value (10 μM) does the source give for `Oc1ccc(C=Cc2cc(O)cc(O)c2)cc1` [resveratrol, 3,5,4′-trihydroxystilbene] here?
Its value is “about 62.0%”.

What about the “average reduction in ROS level in comparison with the control samples” value (25 μM) of the same molecule?
The value was “about 69.5%”.
